Test results taken from paper PMC8747639, “Novel Angiotensin-Converting Enzyme Inhibitory Peptides Identified from Walnut Glutelin-1 Hydrolysates: Molecular Interaction, Stability, and Antihypertensive Effects” (Nutrients, 2021).
No end group written: not given here.

What was measured:
[1] = system: spontaneously hypertensive rats (SHRs); assay: BP measurement after single oral administration in SHR (tail-cuff); assay type: in vivo, rat; conditions: single intragastric administration, captopril 10 mg/kg, 0-8 h
Experimental: (§1) Thirty 10-week-old male spontaneously hypertensive rats (SHRs) and five normal male rats of the same age were used for the experiment. The rats were placed at 25 °C ± 1 °C, relative humidity of 45–55% and a light/dark cycle for 12 h. SHRs were randomly divided into 6 groups after one week of adaptation, while rats in the normal group (NG) were used as controls. The administration was continued for 28 days.
(§2) Rats in the normal and SHR groups were given 1.0 mL of 0.9% saline per day, while the positive control group was given captopril (10 mg/kg body weight) per day. The ACE inhibitory peptides treatment groups’ low and high doses were fed orally with 5 and 15 mg/kg (based on their body weight) by dissolving the peptides in 1.0 mL of 0.9% normal saline. The rats’ BP was measured by the tail-cuff method. The systolic blood pressure (SBP), diastolic blood pressure (DBP), and heart rate of all rats were measured after a single oral administration (0–8 h) and weekly (0–4 weeks). All measurements were repeated at least three times so the average value could be calculated.

[2] = system: serum ET-1, NO, ACE, Ang II, AGT, ALD; assay: Serum ET-1, NO, ACE, Ang II, AGT and ALD in SHR (ELISA / NO kit); assay type: in vivo, rat; conditions: 28 days oral administration, ELISA, p < 0.05
From the text: (§3) The Grain, Oil and Protein Engineering Laboratory of Shaanxi Normal University (Xi’an, China) provided the defatted walnut meal. ACE (from rabbit lung) and hippuryl-histidyl-leucine (HHL) were purchased from Sigma Co., St. Louis, MO, USA. Pepsin (3 × 10^3 U/g) was obtained from Solarbio Science & Technology, Co., Ltd. (Beijing, China). High-performance liquid chromatography grade acetonitrile and trifluoroacetic acid were purchased from Fischer Scientific Co. (Waltham, MA, USA). The enzyme-linked immunosorbent assay kit for the detection of ACE, angiotensinogen (AGT), aldosterone (ALD), and Endothelin-1(ET-1) was purchased from Jiangsu Jingmei Biotechnology Co., Ltd. (YanCheng, China). The enzyme-linked immunosorbent assay kit for the detection of Ang II was obtained from Shanghai Kexing Biotechnology Co., Ltd., (Shanghai, China). and the nitric oxide (NO) detection kit was a product of Nanjing Jiancheng Institute of Biological Engineering (Nanjing, China), and other chemical reagents used in the experiment were of analytical grade.
The upper serum samples were obtained by centrifugation at 3000× g at 4 °C for 10 min after the blood was taken from the abdominal aorta of all rats. The samples were stored at −20 °C, and the serum expression was detected using the ELISA kit (double antibody sandwich enzyme-linked immunosorbent assay).

[3] = system: spontaneously hypertensive rats (SHRs); assay: BP measurement during four weeks of oral administration in SHR (tail-cuff); assay type: in vivo, rat; conditions: daily oral, captopril 10 mg/kg
Experimental: as §1, §2

pepsin and trypsin = assay: GI digestion stability of the synthesized peptides (pepsin, trypsin), read out as ACE inhibitory activity; assay type: in vitro ADME; conditions: pepsin 1 mg/mL pH 2.0 37 °C 3 h, or trypsin 1.0 mg/mL pH 8.0 37 °C 4 h
Experimental: We conducted a GI digestion stability analysis of the synthesized peptides according to the method proposed by Khueychai et al. (2018) with slight modifications. Briefly, the peptide solution was incubated with 1 mg/mL of pepsin solution (0.1 M HCl, pH 2.0) at 37 °C for 3 h. Subsequently, the pH value of the mixed solution was adjusted to 8.0 with 1.0 M NaOH, and 1.0 mg/mL of trypsin added and incubated at 37 °C for 4 h. Finally, the ACE inhibitory activity of the reaction solution could be determined after boiling for 10 min, cooling to room temperature, and centrifuging for 15 min at 10,000× g.

ACE (from rabbit lung) = molecular target: T1, ACE (from rabbit lung) (Oryctolagus cuniculus, UniProt P12822); assay: ACE inhibitory activity (HHL substrate, absorbance); assay type: biochemical; conditions: calculated by linear regression of the curve; read-out: IC50 on angiotensin converting enzyme (ACE)
T1 construct: ACE (from rabbit lung) and hippuryl-histidyl-leucine (HHL) were purchased from Sigma Co; purchased Sigma Co., St. Louis, MO, USA; host or cells: rabbit lung (tissue-derived)
T1 sequence (P12822 34-1310): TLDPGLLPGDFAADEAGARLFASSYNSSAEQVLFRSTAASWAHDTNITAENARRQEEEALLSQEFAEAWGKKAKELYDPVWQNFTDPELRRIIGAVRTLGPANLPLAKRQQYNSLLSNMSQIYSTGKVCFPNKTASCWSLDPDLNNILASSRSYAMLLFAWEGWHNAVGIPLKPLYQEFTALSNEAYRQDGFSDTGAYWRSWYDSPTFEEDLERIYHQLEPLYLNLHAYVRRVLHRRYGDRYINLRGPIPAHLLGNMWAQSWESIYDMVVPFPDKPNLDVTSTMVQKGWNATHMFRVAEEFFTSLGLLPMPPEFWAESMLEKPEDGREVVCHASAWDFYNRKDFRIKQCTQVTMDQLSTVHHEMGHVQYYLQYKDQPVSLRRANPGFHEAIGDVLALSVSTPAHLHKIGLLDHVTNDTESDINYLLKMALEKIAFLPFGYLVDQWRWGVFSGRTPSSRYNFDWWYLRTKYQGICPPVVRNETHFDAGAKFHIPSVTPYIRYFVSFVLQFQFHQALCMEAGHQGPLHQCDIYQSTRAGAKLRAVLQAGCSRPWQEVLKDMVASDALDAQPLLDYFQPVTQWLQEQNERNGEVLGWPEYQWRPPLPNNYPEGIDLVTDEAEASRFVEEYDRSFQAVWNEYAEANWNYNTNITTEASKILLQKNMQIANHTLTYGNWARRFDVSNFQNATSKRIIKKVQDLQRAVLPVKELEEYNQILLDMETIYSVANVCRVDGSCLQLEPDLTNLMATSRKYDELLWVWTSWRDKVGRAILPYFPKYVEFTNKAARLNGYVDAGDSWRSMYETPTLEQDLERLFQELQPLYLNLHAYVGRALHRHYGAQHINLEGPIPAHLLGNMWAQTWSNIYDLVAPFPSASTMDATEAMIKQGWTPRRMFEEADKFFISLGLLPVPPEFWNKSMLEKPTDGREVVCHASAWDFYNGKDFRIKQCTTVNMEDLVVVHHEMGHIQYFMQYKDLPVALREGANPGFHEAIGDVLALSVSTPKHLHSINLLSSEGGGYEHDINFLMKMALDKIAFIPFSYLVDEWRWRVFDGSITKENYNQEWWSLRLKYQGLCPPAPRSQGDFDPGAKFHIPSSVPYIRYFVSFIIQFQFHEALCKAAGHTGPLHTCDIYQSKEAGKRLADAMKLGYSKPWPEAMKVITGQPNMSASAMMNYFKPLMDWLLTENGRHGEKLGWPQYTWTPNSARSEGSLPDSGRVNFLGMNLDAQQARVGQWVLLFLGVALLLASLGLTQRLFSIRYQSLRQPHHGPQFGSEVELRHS
From the text: as §3
Following a previous method reported by Zheng et al. (2017), we could determine the ACE inhibitory activity of glutelin-1 hydrolysate, separated fractions, active peptides, and all the other samples with 1.0 mg/mL Captopril as a positive control. The IC50 value (the concentrationof the inhibitory peptide (μM) had to inhibit 50% of the ACE activity) was calculated by linear regression of the curve.
The following formula was used to calculate the ACE inhibition rate (%): ACE inhibition rate(%)=(1-As/Ac)×100 where Ac represents ACE solution’s absorbance without an inhibitor and As represents the mixture containing samples.

[4] = Temperature, pH, metal ion, sugar and salt treatment stability of the synthesized peptides, read out as ACE inhibition rate; assay type: physicochemical; conditions: 1.0 mg/mL peptide, read-out ACE inhibition rate
Experimental: The effect of temperature, pH, metal ion, sugar, and salt treatments on the stabilities of two synthesized peptides, were determined by incubating 1.0 mg/mL of VERGRRITSV and FVIEPNITPA at 20 °C, 40 °C, 60 °C, 80 °C, and 100 °C for 2 h; 37 °C for 2 h at pH 2, 4, 6, 8, and 10; with 100 μg/mL of KCl, CaCl2, ZnSO4, MgSO4, and FeSO4 solution at 37 °C for 2 h; with glucose solutions of 2%, 4%, 8%, and 12% at 37 °C for 30 min; with NaCl solutions of 2%, 4%, 8%, and 12% at 37 °C for 30 min, respectively. The ACE inhibition rate was measured immediately after incubation.

[5] = NaCl solutions 2-12%, 37 °C for 30 min

| IC50 (ACE (from rabbit lung)) | stability of ACE inhibitory activity with metal ions K+, Ca2+ and Mg2+ ([4]; 100 μg/mL KCl, CaCl2, MgSO4, 37 °C for 2 h) | stability of ACE inhibitory activity under high-concentration salt conditions [4, 5] | stability of ACE inhibitory activity under low-concentration salt conditions [4, 5] | stability of ACE inhibitory activity at low glucose concentration ([4]; glucose solutions 2-12%, 37 °C for 30 min, low concentrations) | Molecule | maximal reduction in SBP [1] | serum ACE level of the SHR control group compared with the treated group [2] | serum AGT level of the SHR control group compared with the treated group [2] | serum ALD level of the SHR control group compared with the treated group [2] | serum AngII level of the SHR control group compared with the treated group [2] | SBP compared with the SHRs group after one week of oral administration ([3]; peptides 5 and 15 mg/kg, p < 0.01) | DBP course during continuous administration ([3]; peptides low dose 5 mg/kg, decline reached a maximum in the second week) | ACE inhibitory activity under pepsin or trypsin digestion (pepsin and trypsin) |
| --- | --- | --- | --- | --- | --- | --- | --- | --- | --- | --- | --- | --- | --- |
|  |  |  |  |  | C[C@H](CS)C(=O)N1CCC[C@H]1C(=O)O [captopril, reference compound] | 29.5 mmHg | significantly higher | significantly higher | significantly higher | significantly higher | significantly lower | began to decrease after one week of continuous administration |  |
| 6.82 µM | showed stability | less stable | good stability | showed stability | VERGRRITSV [VERGRRITSV, Val-Glu-Arg-Gly-Arg-Arg-Ile-Thr-Ser-Val] |  |  |  |  |  |  |  | could still maintain high ACE inhibitory activity |
